The values that follow are results of earlier work, collected in patent publication US4163799A, “Psychostimulant compounds” (Union Chimique Continentale U.C.C., priority 1975, dated 1979).

For the series the following is noted: caffeine, comparison in words, no test described; cited from earlier work.

As to `Cn1c(=O)c2c(ncn2C)n(C)c1=O` [caffeine], the antihypnotic effect result is “does”.
